Measured values reported in ChEMBL document CHEMBL1201862, “PubChem BioAssay data set” (2004).
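1) Cells in 96-well plates. 2) Compound, 48 h, 5 concentrations. 3) Linear interpolation between surrounding doses. 4) Unreached endpoint = highest concentration. At the GI50, growth is halved.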 Active and inactive are the calls of the source. Rule as the data show it: active = GI50 up to about 1.1 µM and inactive = higher.

Assays:
Experiment in all cases: NCI anticancer screen, dose series, 48 h
A498 = tested on: A498
HCC 2998 = tested on: HCC 2998
IGROV-1 = tested on: IGROV-1
LOX IMVI = tested on: LOX IMVI
MDA-MB-231 = tested on: MDA-MB-231
MDA-N = tested on: MDA-N
MOLT-4 = tested on: MOLT-4
Malme-3M = tested on: Malme-3M
NCI-H460 = tested on: NCI-H460
OVCAR-3 = tested on: OVCAR-3
OVCAR-5 = tested on: OVCAR-5
OVCAR-8 = tested on: OVCAR-8
SF-268 = tested on: SF-268
SN12C = tested on: SN12C
SNB-75 = tested on: SNB-75
SR = tested on: SR
T47D = tested on: T47D
U-251 = tested on: U-251
UACC-257 = tested on: UACC-257
UACC-62 = tested on: UACC-62

Measured: GI50

CCCCCCCCCCNC(=O)CCC(NC(=O)c1ccc(N(C)Cc2cnc3nc(N)nc(N)c3n2)cc1)C(=O)NCCCCCCCCCC (stereo not given)
inactive: A498 30.5 µM | HCC 2998 5.75 µM | IGROV-1 6.04 µM | LOX IMVI 2.36 µM | MDA-MB-231 3.57 µM | MDA-N 4.47 µM | MOLT-4 2.99 µM | Malme-3M 12.4 µM | NCI-H460 4.06 µM | OVCAR-3 10 µM | OVCAR-5 23.8 µM | OVCAR-8 8.45 µM | SF-268 9.62 µM | SN12C 8.07 µM | SNB-75 11.9 µM | SR 2.94 µM | T47D 11.6 µM | U-251 4.2 µM | UACC-257 7.89 µM | UACC-62 18.9 µM

Cc1ccc2c(c1)C(=O)C(C1OC(=O)c3ccccc31)C2 (stereo not given)
inactive: A498 > 100 µM | HCC 2998 > 100 µM | IGROV-1 > 100 µM | LOX IMVI 39.9 µM | MDA-MB-231 > 100 µM | MDA-N > 100 µM | MOLT-4 92.5 µM | Malme-3M > 100 µM | NCI-H460 > 100 µM | OVCAR-3 91 µM | OVCAR-5 > 100 µM | OVCAR-8 > 100 µM | SF-268 > 100 µM | SN12C 92.7 µM | SNB-75 > 100 µM | SR 74.5 µM | T47D 76.9 µM | U-251 61 µM | UACC-257 > 100 µM | UACC-62 96.2 µM

Brc1ccc2[nH]cc(-c3csc(-c4c[nH]c5ccccc45)n3)c2c1
inactive: A498 5.19 µM | HCC 2998 2.08 µM | IGROV-1 2.2 µM | LOX IMVI 2.1 µM | MDA-MB-231 2.17 µM | MDA-N 2.88 µM | MOLT-4 2.05 µM | Malme-3M 3.03 µM | NCI-H460 2.61 µM | OVCAR-3 3.01 µM | OVCAR-5 2.02 µM | OVCAR-8 4.9 µM | SF-268 2.66 µM | SN12C 3.66 µM | SNB-75 10.1 µM | SR 3.39 µM | T47D 4.24 µM | U-251 2.98 µM | UACC-257 5.07 µM | UACC-62 5.5 µM

OC(NN=C1CCCC1)(C(F)(F)Cl)C(F)(F)Cl
inactive: A498 > 10 µM | HCC 2998 > 10 µM | IGROV-1 > 10 µM | LOX IMVI > 10 µM | MDA-MB-231 > 10 µM | MDA-N > 10 µM | MOLT-4 > 10 µM | Malme-3M > 10 µM | NCI-H460 > 10 µM | OVCAR-3 > 10 µM | OVCAR-5 > 10 µM | OVCAR-8 > 10 µM | SF-268 > 10 µM | SN12C > 10 µM | SNB-75 > 10 µM | SR > 10 µM | T47D > 10 µM | U-251 > 10 µM | UACC-257 > 10 µM | UACC-62 > 10 µM

C[C@@]12C[C@@H](c3ccccc3O1)N1CCCSC1=N2
inactive: A498 > 100 µM | HCC 2998 > 100 µM | IGROV-1 > 100 µM | LOX IMVI > 100 µM | MDA-MB-231 > 100 µM | MDA-N > 100 µM | MOLT-4 > 100 µM | Malme-3M > 100 µM | NCI-H460 > 100 µM | OVCAR-3 > 100 µM | OVCAR-5 > 100 µM | OVCAR-8 > 100 µM | SF-268 > 100 µM | SN12C > 100 µM | SNB-75 > 100 µM | SR > 100 µM | T47D > 100 µM | U-251 > 100 µM | UACC-257 > 100 µM | UACC-62 > 100 µM
